Several values for one entry are separate records, joined by “and”; a condition that tells them apart may be missing. Equal entries are not always repeated.
Experiments:
[1] = target: MAPK14 (mouse); assay: p38 Inhibition
[2] = system: MAPK14 (Balb/c mice); assay: TNF-alpha Inhibition (in vivo)
[3] = target: MAPK14 (human) (UniProt Q16539); assay: TNF-alpha Inhibition; details: thp1
[4] = system: MAPK14 (rat); assay: Pharmacokinetic Studies
[5] = system: MAPK14 (Lewis rat); assay: p38 Inhibition (SCW-Induced Arthritis Model)

MAPK14 (human), sequence (Q16539 whole entry, looked up): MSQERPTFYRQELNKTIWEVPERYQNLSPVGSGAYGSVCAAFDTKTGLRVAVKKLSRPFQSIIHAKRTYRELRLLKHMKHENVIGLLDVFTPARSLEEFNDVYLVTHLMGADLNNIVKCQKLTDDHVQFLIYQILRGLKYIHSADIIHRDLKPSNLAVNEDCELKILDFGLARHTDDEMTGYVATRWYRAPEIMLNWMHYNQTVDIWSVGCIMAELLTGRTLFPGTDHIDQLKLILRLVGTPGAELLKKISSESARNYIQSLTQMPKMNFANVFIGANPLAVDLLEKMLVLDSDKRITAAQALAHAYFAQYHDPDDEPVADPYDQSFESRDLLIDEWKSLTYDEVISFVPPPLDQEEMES

Structure (SMILES)	IC50 [3] [nM]	AUC [4]	further results
C[C@]1(C(=O)N2CCOCC2)CO[C@H](c2nc(-c3ccc(F)cc3)c(-c3ccncc3)[nH]2)OC1	60	247 ng·h/mL and 628 ng·h/mL	IC50 [1]: 110000 nM; ED50 [2]: Between 3 to 10 mg kg-1; Cp [4]: 277 ng/mL
C[C@]1(C(=O)NC2CC2)CO[C@H](c2nc(-c3ccc(F)cc3)c(-c3ccnc(NCC4CC4)n3)[nH]2)OC1	–	288 ng·h/mL	–
CN(C)C(=O)[C@]1(C)CO[C@@H](c2nc(-c3ccc(F)cc3)c(-c3ccnc(NCC4CC4)n3)[nH]2)OC1	0.2	276 ng·h/mL	–
COCCNc1nccc(-c2[nH]c([C@H]3OC[C@@](C)(C(=O)NCC4CC4)CO3)nc2-c2ccc(F)cc2)n1	–	121 ng·h/mL	–
COCCCNc1nccc(-c2[nH]c([C@H]3OC[C@@](C)(C(=O)NCCOC)CO3)nc2-c2ccc(F)cc2)n1	71	138 ng·h/mL	–
CN(C)C(=O)[C@]1(C)CO[C@@H](c2nc(-c3ccc(F)cc3)c(-c3ccnc(NCc4ccccn4)n3)[nH]2)OC1	9	529 ng·h/mL	–
C[C@@H]1C[C@H]2[C@@H]3CCC4=CC(=O)C=C[C@]4(C)[C@@]3(F)[C@@H](O)C[C@]2(C)[C@@]1(O)C(=O)CO	–	–	score [5]: 22.5
C=CCNc1nccc(-c2[nH]c([C@H]3OC[C@@](C)(C(=O)NCCOC)CO3)nc2-c2ccc(F)cc2)n1	73	169 ng·h/mL	–
CC(C)NC(=O)[C@]1(C)CO[C@@H](c2nc(-c3ccc(F)cc3)c(-c3ccnc(NCC4CC4)n3)[nH]2)OC1	–	412 ng·h/mL	–
CN1CCN(C(=O)[C@]2(C)CO[C@@H](c3nc(-c4ccc(F)cc4)c(-c4ccnc(NCC5CC5)n4)[nH]3)OC2)CC1	2	541 ng·h/mL	bioavailability ([4]; dose or concentration not given here): 20%; score [5]: 40 and 34 and 25
CCCNC(=O)[C@]1(C)CO[C@@H](c2nc(-c3ccc(F)cc3)c(-c3ccnc(NCc4ccco4)n3)[nH]2)OC1	3	257 ng·h/mL	–
CCCNC(=O)[C@]1(C)CO[C@@H](c2nc(-c3ccc(F)cc3)c(-c3ccnc(NCCCOC)n3)[nH]2)OC1	3.5	738 ng·h/mL	–

Source: the Kinase Knowledgebase extract (Sharma et al. 2016)
